Patent US12016355B2, “Stevia composition” (PURECIRCLE SDN BHD, priority 2011, dated 2024)
Like-named read-outs stand apart in the source and are kept apart here.

Columns and labels:
[1] = as usually found, literature; cited from earlier work
[2] = Sweetness factor (SF) determination by trained panel in water; conditions: in water, 5% SE
Protocol: The sweetness factors for different sweetener from all major groups were measured by tasting several concentrations of each sweetener in water by trained panel. From the sensory test at a, the concentration (%) that corresponds to the 5% sucrose equivalent (SE) sweetness were estimated and listed in Table 2. The sweetness equivalent (SE) of high intensity sweeteners (HIS) varies according to the target sugar equivalent sweetness levels, that are tested as shown in Table 3.

[3] = Sugar equivalent sweetness of sweetener/Reb B combinations in plain water, trained panel; conditions: plain water
Protocol: In one embodiment, Reb B was combined (at 50, 150 and 300 ppm) with several sweeteners listed in Table 2 to make solutions in plain water. Some of the sweeteners were tested at two different concentrations to obtain around 2% sugar equivalent sweetness without any Reb B. A trained panel conducted sensory tests to determine the effect of the addition of different amounts of Reb B to each sweetener on overall sweetness quality and intensity as shown in Table 4.

[4] = assay type: physicochemical
Protocol: Hereinafter, unless specified otherwise the solubility of material is determined in reverse osmosis (RO) water at room temperature. Where the solubility is expressed as “%” it to be understood as number of grams of material soluble in 100 grams of solvent.
The temperature was increased at 1° C. per minute to 121° C. The mixture was maintained at 121° C. for 1 hour and then the temperature was decreased to 80° C., at 1° C. per minute, and the obtained solution was spray dried using YC-015 laboratory spray drier (Shanghai Pilotech Instrument & Equipment Co. Ltd., China) operating at 175° C. inlet and 100° C. outlet temperature. Solution was maintained at 80° C. to prevent premature crystallization.
Solubility were evaluated for Reb A, Reb B, mechanical blends of Reb A and Reb B powders of different ratios, and mixtures of Reb A and Reb B prepared according to process described in EXAMPLE 1.

[5] = room temperature; reported values; cited from earlier work

## C=C1C[C@@]23CC[C@H]4[C@@](C)(CCC[C@@]4(C)C(=O)O[C@@H]4O[C@H](CO)[C@@H](O)[C@H](O)[C@H]4O)[C@@H]2CC[C@]1(O[C@@H]1O[C@H](CO)[C@@H](O)[C@H](O)[C@H]1O[C@@H]1O[C@@H](C)[C@H](O)[C@@H](O)[C@H]1O)C3 [Dulcoside A]
[1]
  times sweeter than sucrose: 30 times

## OC[C@@H](O)[C@@H](O)CO [Erythritol]
[2]
  Calculated SF (sweetness factor): 0.67
  Usage Level, % (concentration corresponding to 5% sucrose equivalent sweetness): 7.49%
[3]; 0 ppm Reb B, listed as Erythritol (3.5%)
  Sugar equivalent sweetness (SE) of Sweetener/Reb B combination: 1-1.5%
[3]; 0 ppm Reb B, listed as Erythritol (5.0%)
  Sugar equivalent sweetness (SE) of Sweetener/Reb B combination: 3%
[3]; 50 ppm Reb B, listed as Erythritol (3.5%)
  Sugar equivalent sweetness (SE) of Sweetener/Reb B combination: 3%
[3]; 50 ppm Reb B, listed as Erythritol (5.0%)
  Sugar equivalent sweetness (SE) of Sweetener/Reb B combination: 4%
[3]; 150 ppm Reb B, listed as Erythritol (3.5%)
  Sugar equivalent sweetness (SE) of Sweetener/Reb B combination: 5.5-6%
[3]; 150 ppm Reb B, listed as Erythritol (5.0%)
  Sugar equivalent sweetness (SE) of Sweetener/Reb B combination: 8%
[3]; 300 ppm Reb B, listed as Erythritol (3.5%)
  Sugar equivalent sweetness (SE) of Sweetener/Reb B combination: 9%
[3]; 300 ppm Reb B, listed as Erythritol (5.0%)
  Sugar equivalent sweetness (SE) of Sweetener/Reb B combination: 9.5%

## OC[C@@H](O)[C@@H](O[C@H]1O[C@H](CO)[C@@H](O)[C@H](O)[C@H]1O)[C@H](O)[C@@H](O)CO [Maltitol]
[2]
  Calculated SF (sweetness factor): 0.77
  Usage Level, % (concentration corresponding to 5% sucrose equivalent sweetness): 6.44%
[3]; 0 ppm Reb B
  Sugar equivalent sweetness (SE) of Sweetener/Reb B combination: 5%
[3]; 50 ppm Reb B
  Sugar equivalent sweetness (SE) of Sweetener/Reb B combination: 6%
[3]; 150 ppm Reb B
  Sugar equivalent sweetness (SE) of Sweetener/Reb B combination: 9%
[3]; 300 ppm Reb B
  Sugar equivalent sweetness (SE) of Sweetener/Reb B combination: 12%

## C[C@H](CC[C@@H](O[C@@H]1O[C@H](CO[C@@H]2O[C@H](CO)[C@@H](O)[C@H](O)[C@H]2O)[C@@H](O)[C@H](O)[C@H]1O[C@@H]1O[C@H](CO)[C@@H](O)[C@H](O)[C@H]1O)C(C)(C)O)[C@H]1CC[C@@]2(C)[C@@H]3CC=C4[C@@H](CC[C@H](O[C@@H]5O[C@H](CO[C@@H]6O[C@H](CO)[C@@H](O)[C@H](O)[C@H]6O)[C@@H](O)[C@H](O)[C@H]5O)C4(C)C)[C@]3(C)[C@H](O)C[C@]12C [Mogroside V (70%), Mogroside V]
[2]
  Calculated SF (sweetness factor): 236
  Usage Level, % (concentration corresponding to 5% sucrose equivalent sweetness): 0.0212%
[3]; 0 ppm Reb B, listed as Mogroside V (100 ppm)
  Sugar equivalent sweetness (SE) of Sweetener/Reb B combination: 2.5%
[3]; 0 ppm Reb B, listed as Mogroside V (212 ppm)
  Sugar equivalent sweetness (SE) of Sweetener/Reb B combination: 5.5-6%
[3]; 50 ppm Reb B, listed as Mogroside V (100 ppm)
  Sugar equivalent sweetness (SE) of Sweetener/Reb B combination: 4%
[3]; 50 ppm Reb B, listed as Mogroside V (212 ppm)
  Sugar equivalent sweetness (SE) of Sweetener/Reb B combination: 7%
[3]; 150 ppm Reb B, listed as Mogroside V (100 ppm)
  Sugar equivalent sweetness (SE) of Sweetener/Reb B combination: 5.5%
[3]; 150 ppm Reb B, listed as Mogroside V (212 ppm)
  Sugar equivalent sweetness (SE) of Sweetener/Reb B combination: 9%
[3]; 300 ppm Reb B, listed as Mogroside V (100 ppm)
  Sugar equivalent sweetness (SE) of Sweetener/Reb B combination: 8-8.5%
[3]; 300 ppm Reb B, listed as Mogroside V (212 ppm)
  Sugar equivalent sweetness (SE) of Sweetener/Reb B combination: 10-10.5%

## C=C1C[C@@]23CC[C@H]4[C@@](C)(CCC[C@@]4(C)C(=O)O[C@@H]4O[C@H](CO)[C@@H](O)[C@H](O)[C@H]4O)[C@@H]2CC[C@]1(O[C@@H]1O[C@H](CO)[C@@H](O)[C@H](O[C@@H]2O[C@H](CO)[C@@H](O)[C@H](O)[C@H]2O)[C@H]1O[C@@H]1O[C@@H](C)[C@H](O)[C@@H](O)[C@H]1O)C3 [Rebaudioside C]
[1]
  times sweeter than sucrose: 40-60 times

## OC[C@H]1O[C@H](O[C@]2(CCl)O[C@H](CCl)[C@@H](O)[C@@H]2O)[C@H](O)[C@@H](O)[C@H]1Cl [Sucralose]
[2]
  Calculated SF (sweetness factor): 602
  Usage Level, % (concentration corresponding to 5% sucrose equivalent sweetness): 0.0083%
[3]; 0 ppm Reb B, listed as Sucralose 83 ppm
  Sugar equivalent sweetness (SE) of Sweetener/Reb B combination: 5%
[3]; 0 ppm Reb B, listed as Sucralose (40 ppm)
  Sugar equivalent sweetness (SE) of Sweetener/Reb B combination: 2-2.5%
[3]; 50 ppm Reb B, listed as Sucralose 83 ppm
  Sugar equivalent sweetness (SE) of Sweetener/Reb B combination: 7%
[3]; 50 ppm Reb B, listed as Sucralose (40 ppm)
  Sugar equivalent sweetness (SE) of Sweetener/Reb B combination: 5%
[3]; 150 ppm Reb B, listed as Sucralose 83 ppm
  Sugar equivalent sweetness (SE) of Sweetener/Reb B combination: 11%
[3]; 150 ppm Reb B, listed as Sucralose (40 ppm)
  Sugar equivalent sweetness (SE) of Sweetener/Reb B combination: 7.5-8%
[3]; 300 ppm Reb B, listed as Sucralose 83 ppm
  Sugar equivalent sweetness (SE) of Sweetener/Reb B combination: 14%
[3]; 300 ppm Reb B, listed as Sucralose (40 ppm)
  Sugar equivalent sweetness (SE) of Sweetener/Reb B combination: 11%

## OC[C@H]1O[C@@](CO)(O[C@H]2O[C@H](CO)[C@@H](O)[C@H](O)[C@H]2O)[C@@H](O)[C@@H]1O [Sugar]
[2]
  Calculated SF (sweetness factor): 1
  Usage Level, % (concentration corresponding to 5% sucrose equivalent sweetness): 5%

## Rebaudioside D [Reb D]
[2]
  Calculated SF (sweetness factor): 291
  Usage Level, % (concentration corresponding to 5% sucrose equivalent sweetness): 0.0172%
[4]
  water solubility: 0.03%
[5]
  water solubility: 0.01-0.05%
